Data reported in ChEMBL document CHEMBL1201862, “PubChem BioAssay data set” (2004).
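Method: 48-hour compound exposure of cells in 96-well plates, five concentrations, linear interpolation of endpoints. GI50 is the concentration that inhibits growth by half.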 Calls of active or inactive are those of the source. Rule as the data show it: active = GI50 up to about 1.1 µM and inactive = higher.

Columns and labels:
Test in all cases: NCI tumour cell line growth inhibition, 48 h
[1] = system: 786-0
[2] = system: A498
[3] = system: CCRF-CEM
[4] = system: DU-145
[5] = system: EKVX
[6] = system: HCC 2998
[7] = system: HOP-62
[8] = system: KM12
[9] = system: LOX IMVI
[10] = system: M14
[11] = system: NCI-H226
[12] = system: NCI-H23
[13] = system: NCI-H522
[14] = system: OVCAR-4
[15] = system: OVCAR-5
[16] = system: RXF 393
[17] = system: SK-MEL-2
[18] = system: SNB-19
[19] = system: T47D
[20] = system: TK-10

SMILES | GI50 [1] | GI50 [2] | GI50 [3] | GI50 [4] | GI50 [5] | GI50 [6] | GI50 [7] | GI50 [8] | GI50 [9] | GI50 [10] | GI50 [11] | GI50 [12] | GI50 [13] | GI50 [14] | GI50 [15] | GI50 [16] | GI50 [17] | GI50 [18] | GI50 [19] | GI50 [20]
C=C1C(=O)OC2C1CCC(C)C1C=CC(=O)C12C (stereo not given) | 1.85 µM (inactive) | 12.1 µM (inactive) | 1.34 µM (inactive) | 2.53 µM (inactive) | 8.79 µM (inactive) | 12 µM (inactive) | 15.5 µM (inactive) | 2.16 µM (inactive) | 1.93 µM (inactive) | 1.95 µM (inactive) | 3.75 µM (inactive) | 3.25 µM (inactive) | 0.891 µM (active) | 6.76 µM (inactive) | 4.53 µM (inactive) | 1.84 µM (inactive) | 4.39 µM (inactive) | 14.7 µM (inactive) | 2.45 µM (inactive) | 3.05 µM (inactive)
Nc1ccc2c(c1)S(=O)(=O)c1cc(O)ccc1O2 | > 100 µM (inactive) | 31.2 µM (inactive) | > 100 µM (inactive) | > 100 µM (inactive) | > 100 µM (inactive) | > 100 µM (inactive) | > 100 µM (inactive) | > 100 µM (inactive) | > 100 µM (inactive) | > 100 µM (inactive) | > 100 µM (inactive) | > 100 µM (inactive) | > 100 µM (inactive) | > 100 µM (inactive) | > 100 µM (inactive) | 48.3 µM (inactive) | > 100 µM (inactive) | > 100 µM (inactive) | > 100 µM (inactive) | > 100 µM (inactive)
CCP(=O)(OC)C1=CCN(C(=O)OCC[Si](C)(C)C)CC1 (stereo not given) | > 100 µM (inactive) | > 100 µM (inactive) | > 100 µM (inactive) | > 100 µM (inactive) | > 100 µM (inactive) | > 100 µM (inactive) | > 100 µM (inactive) | > 100 µM (inactive) | > 100 µM (inactive) | > 100 µM (inactive) | > 100 µM (inactive) | > 100 µM (inactive) | > 100 µM (inactive) | > 100 µM (inactive) | > 100 µM (inactive) | > 100 µM (inactive) | > 100 µM (inactive) | > 100 µM (inactive) | > 100 µM (inactive) | > 100 µM (inactive)
CCOC(=O)/C=C(\C(=O)OCC)n1ccc(=O)n(Cc2cn(CCCCOC(C)=O)nn2)c1=O | 7.66 µM (inactive) | 17.6 µM (inactive) | 1.28 µM (inactive) | 20.5 µM (inactive) | 13 µM (inactive) | 21.6 µM (inactive) | 20.7 µM (inactive) | 16 µM (inactive) | 14.9 µM (inactive) | 23.9 µM (inactive) | 13.6 µM (inactive) | 16.6 µM (inactive) | 1.72 µM (inactive) | 19.4 µM (inactive) | 14.3 µM (inactive) | 12 µM (inactive) | 18.8 µM (inactive) | > 39.7 µM (inactive) | 5.36 µM (inactive) | 6.4 µM (inactive)
c1ccc(/C(=N\Nc2nc3ccccc3[nH]2)c2ccccn2)cc1 | 0.31 µM (active) | 0.916 µM (active) | 0.0959 µM (active) | 2.13 µM (inactive) | 0.47 µM (active) | 1.73 µM (inactive) | 0.324 µM (active) | 0.735 µM (active) | 0.516 µM (active) | 0.361 µM (active) | 0.256 µM (active) | 0.381 µM (active) | 0.25 µM (active) | 0.208 µM (active) | 0.733 µM (active) | 0.716 µM (active) | 4.09 µM (inactive) | 1.22 µM (inactive) | 0.136 µM (active) | 0.314 µM (active)
COC(COC(=O)N1CCN(C=O)CC1)C1=C(N2CC2)C(=O)C(C)=C(N2CC2)C1=O (stereo not given) | 0.0644 µM (active) | 1.51 µM (inactive) | 0.13 µM (active) | 0.0472 µM (active) | 5.08 µM (inactive) | 21.2 µM (inactive) | 0.191 µM (active) | 0.551 µM (active) | 0.0664 µM (active) | 0.202 µM (active) | 0.582 µM (active) | 0.0675 µM (active) | 0.107 µM (active) | 0.585 µM (active) | 2.56 µM (inactive) | 0.228 µM (active) | 0.705 µM (active) | 0.437 µM (active) | 0.257 µM (active) | 0.579 µM (active)
O=C1CSC2=NC3=C(COC/C3=C\c3ccc(F)cc3)C(c3ccc(F)cc3)N12 (stereo not given) | 59.4 µM (inactive) | > 100 µM (inactive) | 25.8 µM (inactive) | 35.2 µM (inactive) | 83.8 µM (inactive) | 48.6 µM (inactive) | > 100 µM (inactive) | 75 µM (inactive) | 52 µM (inactive) | 35.5 µM (inactive) | > 100 µM (inactive) | 73.1 µM (inactive) | 28.2 µM (inactive) | 50.9 µM (inactive) | > 100 µM (inactive) | 59.8 µM (inactive) | 99.5 µM (inactive) | 94.2 µM (inactive) | 58.5 µM (inactive) | 99.5 µM (inactive)
COC(=O)C(Cc1ccccc1)NP(=O)(O)OCC1OC(n2cc(F)c(=O)[nH]c2=O)CC1O (stereo not given) | 4.14 µM (inactive) | 7.38 µM (inactive) | 1.1 µM (active) | 9.79 µM (inactive) | > 100 µM (inactive) | 2.39 µM (inactive) | 2.58 µM (inactive) | > 100 µM (inactive) | 3.21 µM (inactive) | 21.3 µM (inactive) | > 33.4 µM (inactive) | 10.9 µM (inactive) | > 100 µM (inactive) | > 100 µM (inactive) | > 100 µM (inactive) | > 100 µM (inactive) | > 100 µM (inactive) | 3.34 µM (inactive) | 12.6 µM (inactive) | > 100 µM (inactive)
COC(=O)c1csc([C@@H](OC(=O)[C@H](C)[C@H](CCCC(C)(Cl)Cl)OC(=O)c2csc([C@H](O)CO)n2)C(C)C)n1 | 14 µM (inactive) | 18.3 µM (inactive) | 17.2 µM (inactive) | 12.3 µM (inactive) | 17.1 µM (inactive) | 10.2 µM (inactive) | 18.4 µM (inactive) | 15.7 µM (inactive) | 10.5 µM (inactive) | 17.8 µM (inactive) | 19.2 µM (inactive) | 16.4 µM (inactive) | 16.8 µM (inactive) | 10 µM (inactive) | 15.5 µM (inactive) | 1.89 µM (inactive) | 15.3 µM (inactive) | 13.6 µM (inactive) | 20.7 µM (inactive) | 12.4 µM (inactive)
CC1OC2/C=C\CC(O)C(C)(C)C3CCC(C)C4(O3)O[B-]35OC(C(=O)OC1C2)C1(OC(CCC1C)C(C)(C)C(O)C/C=C\C1CC(OC(=O)C4O3)C(C)O1)O5 (stereo not given) | 2.83 µM (inactive) | 2.45 µM (inactive) | 0.718 µM (active) | 7.96 µM (inactive) | 2.15 µM (inactive) | 1.66 µM (inactive) | 2.08 µM (inactive) | 3.07 µM (inactive) | 1.97 µM (inactive) | 2.11 µM (inactive) | 0.726 µM (active) | 1.85 µM (inactive) | 0.344 µM (active) | 7.76 µM (inactive) | 7.45 µM (inactive) | 1.87 µM (inactive) | 1.54 µM (inactive) | 2.39 µM (inactive) | 2.81 µM (inactive) | 2.97 µM (inactive)
COc1cc(C2c3cc4c(cc3[C@@H](Nc3ccc(C#N)cc3)C3COC(=O)[C@H]23)OCO4)cc(OC)c1O (stereo not given in full) | 0.724 µM (active) | 2.01 µM (inactive) | 0.524 µM (active) | 0.273 µM (active) | 16.7 µM (inactive) | 0.0693 µM (active) | 0.592 µM (active) | 5.33 µM (inactive) | 1.08 µM (active) | 1.35 µM (inactive) | 0.665 µM (active) | 0.622 µM (active) | 1.88 µM (inactive) | 3.43 µM (inactive) | 5.64 µM (inactive) | 1.41 µM (inactive) | 14.6 µM (inactive) | 1.39 µM (inactive) | 0.828 µM (active) | 7.82 µM (inactive)
O=c1ccc2cc(O)c(O)cc2o1 [ESCULETIN] | > 100 µM (inactive) | > 100 µM (inactive) | > 100 µM (inactive) | > 100 µM (inactive) | > 100 µM (inactive) | > 100 µM (inactive) | > 100 µM (inactive) | > 100 µM (inactive) | > 100 µM (inactive) | > 100 µM (inactive) | > 100 µM (inactive) | > 100 µM (inactive) | > 100 µM (inactive) | 97.3 µM (inactive) | > 100 µM (inactive) | > 100 µM (inactive) | > 100 µM (inactive) | > 100 µM (inactive) | > 41.8 µM (inactive) | > 100 µM (inactive)
